Where two headings read alike, the source gives them in different places.
Assay: Pharmacokinetic study in mice
Assay type: in vivo
Settings: female, ICR, mouse, plasma, 10 mg/kg
Method: Pharmacokinetic parameters of amphenmulin were measured according to previous reports with some modifications. Each group consisted of eight female SPF-ICR mice. Amphenmulin (1 mg/mL) was administered intravenously, intraperitoneally, and orally at a dose of 10 mg/kg, respectively. Formulation of amphenmulin was a filtered solution in 5% DMSO, 5% Tween-80, and 90% normal saline. Serial samples (each 0.2 mL) were collected from the ocular venous plexus and placed in a plastic centrifuge tube. The blood samples were placed at room temperature for 20 min and transferred to a 4 °C refrigerator for 12 h to promote blood coagulation. Then samples were centrifuged at 2000 r/min for 10 min to get serum. Serum samples were frozen at −20°C. 100 µL of samples was accurately absorbed and mixed with 100 µL of acetonitrile in a 1.5 mL centrifuge tube. The sample was mixed vigorously and centrifuged at 12,000 rpm for 10 min. The supernatant was transferred, filtered through a 0.22 μm cellulose membrane filter and used for LC-MS/MS analysis. Equipment and analysis conditions were shown in supplemental data. The pharmacokinetic parameters of amphenmulin were determined from the mean plasma concentration with noncompartmental analysis in WinNonlin 5.2 software (Pharsight, Mountain View, CA, USA). Data were shown as mean ± standard deviation (SD).

[1] = intraperitoneal, mice, intraperitoneal 10 mg/kg, n = 8, read-out: plasma concentration, mean ± S.D
[2] = iv, intravenous 10 mg/kg, mice 1-8 in order, read-out: plasma concentration, individual mice
[3] = iv, mice, intravenous 10 mg/kg, n = 8, read-out: plasma concentration, mean ± S.D
[4] = po, mice, oral 10 mg/kg, n = 8, read-out: plasma concentration, mean ± S.D

C=C[C@]1(C)C[C@@H](OC(=O)CSc2ccccc2N)[C@]2(C)[C@H](C)CC[C@]3(CCC(=O)[C@H]32)[C@@H](C)[C@@H]1O [Amphenmulin, 22-(2-amino-phenylsulfanyl)-22-deoxypleuromutilin]
concentration at 0.083 h [1]: 850 ± 320 ng/mL
concentration at 0.25 h [1]: 1220 ± 460 ng/mL
concentration at 0.5 h [1]: 980 ± 420 ng/mL
concentration at 0.75 h [1]: 740 ± 330 ng/mL
concentration at 1 h [1]: 580 ± 240 ng/mL
concentration at 2 h [1]: 340 ± 160 ng/mL
concentration at 4 h [1]: 190 ± 120 ng/mL
concentration at 6 h [1]: 120 ± 90 ng/mL
concentration at 8 h [1]: 70 ± 40 ng/mL
concentration at 12 h [1]: 30 ± 10 ng/mL
AUC(0-inf) (ip, mice, intraperitoneal): 2520 ± 810 ng·h/mL
Cmax (ip, mice, intraperitoneal): 1340 ± 420 ng/mL
MRT (ip, mice, intraperitoneal): 3.28 ± 0.42 h
Tmax (ip, mice, intraperitoneal): 0.32 ± 0.21 h
bioavailability (ip, mice, intraperitoneal): 20.7%
half-life (ip, mice, intraperitoneal): 2.64 ± 0.72 h
Vd/F (ip, mice, intraperitoneal, read-out: Vz/F): 15.9 ± 7.41 L/kg
concentration at 0.083 h [2]: 3060 ng/mL
concentration at 0.25 h [2]: 2850 ng/mL
concentration at 0.5 h [2]: 2650 ng/mL
concentration at 0.75 h [2]: 2350 ng/mL
concentration at 4 h [2]: 850 ng/mL
concentration at 6 h [2]: 460 ng/mL
concentration at 0.083 h [3]: 3940 ± 730 ng/mL
concentration at 0.25 h [3]: 3770 ± 640 ng/mL
concentration at 0.5 h [3]: 3530 ± 530 ng/mL
concentration at 0.75 h [3]: 3310 ± 740 ng/mL
concentration at 1 h [3]: 3190 ± 700 ng/mL
concentration at 2 h [3]: 2300 ± 650 ng/mL
concentration at 4 h [3]: 1010 ± 160 ng/mL
concentration at 6 h [3]: 420 ± 90 ng/mL
concentration at 8 h [3]: 210 ± 80 ng/mL
concentration at 12 h [3]: 50 ± 10 ng/mL
concentration at 0.25 h [4]: 90 ± 50 ng/mL
concentration at 0.5 h [4]: 310 ± 110 ng/mL
concentration at 1 h [4]: 490 ± 160 ng/mL
concentration at 2 h [4]: 360 ± 210 ng/mL

From publication PMC7071076, “Antibacterial Activity and Pharmacokinetic Profile of a Promising Antibacterial Agent: 22-(2-Amino-phenylsulfanyl)-22-Deoxypleuromutilin” (Molecules, 2020)
